{"source": "patent US20090311246A1", "about": "“Method of Enhancing Remyelination in Demyelinating Diseases of the Central Nervous System” (priority 2008, published 2009)", "key": {"[1]": {"system": "SFV-infected WT and γδ KO mice", "assay": "E2 137-151 peptide immunization during SFV disease: histopathology, remyelination in one micron brain sections", "format": "in vivo", "details": "for Remyelination in KO mice: peptide-immunized SFV-infected γδ KO mice, day 28 pi", "text": "FIG. 4 Remyelination in E2 137-151 immunized, SFV-infected WT and γδ-KO B6 mice. All figures come from one micron epoxy sections taken from brain tissues, fixed in 2.5% glutaraldehyde/1% osmium tetroxide, embedded in epoxy resin, stained with toluidine blue and photographed by light microscopy.\n(§1) In order to be able to detect the de- and remyelination accurately, at the end of the experiment, mice will be sacrificed by an overdose of sodium pentobarbital and perfused by intracardiac puncture with Trumps fixative, containing 4% paraformaldehyde and 1% glutaraldehyde. Brains and spinal cords are removed and post fixed in osmium textroxide. Each brain is sectioned coronally into three pieces by cuts through infandibulum and optic chiasm. Spinal cord tissues will be also harvested and processed. Every third block (10-12 blocks per spinal cord, cervical to lumbar range) will be embedded, along with brain sections, in Araldite plastic. The embedded tissues will be cross-sectioned at 1 μm thickness, and the slides stained with toluidine blue or 4% paraphenylenediamine to highlight the myelin sheets. We have studied the one-micron thin sections of the brains of SFV-infected WT and KO on days of 21-42 postinfection.\nas §1, with “[…] These lesions were impossible to quantitate due to very small sizes of nerve fibers. Consequently we plan to study” for “The embedded tissues will be cross-sectioned at 1 μm thickness, and”, “cross” for “slides stained with toluidine blue or 4% paraphenylenediamine to highlight the myelin sheets. We have studied the one-micron thin”, “spinal cords to quantitate these lesins, as has been previously reported (71). […]” for “the brains of SFV-infected WT and KO on days of 21-42 postinfection.”"}, "B6 mice with EAE": {"system": "B6 mice with EAE", "assay": "Antibody responses (ELISA) of E2 137-151 peptide treated EAE mice", "format": "in vivo", "protocol": "FIG. 7 Comparison of antibody responses (±SEM) of EAE, E2-137-151 peptide treated, and untreated EAE mice to E2-137-151, MOG 35-55 and control peptides. Three experiments were performed with total number of 21 EAE and 22 treated EAE. All mice were immunized subcutaneously with myelin oligodendrocyte glycoprotein (MOG) peptide, 35-55 in CFA, as described above, on D0. EAE mice were treated as described for FIG. 6. All mice were sacrificed at the end of experiment on D39 post immunization.\nTo measure the antibody response of both WT and γδ KO mice against SFV and two of the peptides of the SFV envelope protein, E2, an indirect ELISA was performed. Sera were pooled from 4-6 SFV-infected WT, and 3 KO, mice on days 0, 7, 14, 21 and 35 pi. Briefly, Immunolon 2HB 96 well microtiter plates (VWR, Bridge Port, N.J.) were coated with 1 μg/well of each antigen in 100 μl/well carbonate buffer overnight at room temperature. After washing, the plates were blocked and serum samples were added. […] After washing, biotinylated goat anti-mouse Igs (BD Pharmingen, Torreyana, Calif.), Strepavidin conjugated to Horse Radish Peroxidase (Vector Laboratories, Burlingame, Calif.), and OPD substrate (Sigma, St. Louis, Mo.) were used, as previously described (4, 9). […] Values were considered to be positive when they were >0.3 OD units and exceeded the mean value plus three standard deviations for antibody response on day 0 pi of mice of the same strain.\nAntibody Responses of RAE and E2 137-151 treated EAE mice to E2-137 and control peptide (E2 115-129) were measured by ELISA at the end of experiment on D39 pi."}}, "note": "“Also recorded” adds a separate entry of the source.", "data": [{"molecule": "CC[C@H](C)[C@H](NC(=O)[C@H](CCC(=O)O)NC(=O)[C@H](CCCCN)NC(=O)CNC(=O)[C@H](Cc1ccc(O)cc1)NC(=O)[C@H](Cc1c[nH]cn1)NC(=O)[C@@H]1CCCN1C(=O)[C@H](CCCNC(=N)N)NC(=O)[C@@H](NC(=O)[C@@H](NC(=O)[C@H](Cc1ccccc1)NC(=O)[C@H](CCCCN)NC(=O)[C@H](CCC(=O)O)NC(=O)[C@H](CCCNC(=N)N)NC(=O)CN)[C@@H](C)O)[C@@H](C)CC)C(=O)O", "note": "[E2 137-151]", "values": [{"measurement": "Remyelination in WT mice", "setting": "[1]; peptide-immunized SFV-infected WT mice", "value": "normal remyelination"}, {"measurement": "Remyelination in KO mice", "setting": "[1]", "value": "advanced remyelination"}, {"measurement": "Remyelination in KO mice", "setting": "[1]; listed as E2 137-151 peptide", "value": "early remyelination; also recorded: promoted remyelination"}, {"measurement": "Antibody response to E2-137, treated compared with untreated EAE mice", "setting": "B6 mice with EAE; ELISA, D39 pi", "value": "significantly higher than untreated EAE mice"}, {"measurement": "Antibody responses to MOG 35-55 and control peptide, treated compared with untreated EAE mice", "setting": "B6 mice with EAE; ELISA, D39 pi", "value": "no significant difference"}, {"measurement": "Antibody response to E2-137, treated compared with untreated EAE mice", "setting": "B6 mice with EAE; ELISA, D39 pi, listed as E2-137 peptide", "value": "treated>untreated EAE mice"}, {"measurement": "Reactivity of sera from treated EAE mice with MBP 54-68", "setting": "B6 mice with EAE; preliminary experiments", "value": "also reacted with MBP 54-68"}]}]}
